From US12365668B2, “Aminopyrazine diol compounds as PI3K-y inhibitors” (Incyte Corporation, priority 2018, dated 2025)
Where two headings read alike, the source gives them in different places.

Key:
[1] = molecular target: PI3Kγ (p110γ) Recombinant Human Protein (Homo sapiens (Human), UniProt P48736); assay: PI3K-γ Scintillation Proximity Assay; type: biochemical; details: 20 μM PIP2, 2 μM ATP, SPA
Description: Example B. PI3K-γ Scintillation Proximity Assay Materials: [γ-^33P]ATP (10 mCi/mL) and Wheat Germ Agglutinin (WGA) YSi SPA Scintillation Beads was purchased from Perkin Elmer (Waltham, MA). Lipid kinase substrate, D-myo-Phosphatidylinositol 4,5-bisphosphate (PtdIns(4,5)P2)D (+)-sn-1,2-di-O-octanoylglyceryl, 3-O-phospho linked (PIP2), CAS 204858-53-7, was purchased from Echelon Biosciences (Salt Lake City, UT). PI3Kγ (p110γ) Recombinant Human Protein was purchased from Life technology (Grand Island, NY). ATP, MgCl2, DTT, EDTA, MOPS and CHAPS were purchased from Sigma Aldrich (St. Louis, MO). The kinase reaction was conducted in polystyrene 384-well Greiner Bio-one white plate from Thermo Fisher Scientific in a final volume of 25 μL. Inhibitors were first diluted serially in DMSO and added to the plate wells before the addition of other reaction components. The final concentration of DMSO in the assay was 2%. The PI3Kγ assay was carried out at room temperature in 20 mM MOPS, pH 6.7, 10 mM MgCl2, 5 mM DTT and CHAPS 0.03%. Reactions were initiated by the addition of ATP, the final reaction mixture consisted of 20 μM PIP2, 2 μM ATP, 0.5 μCi [γ-^33P] ATP, 13 nM PI3Kγ. Reactions were incubated for 120 min and terminated by the addition of 40 μL SPA beads suspended in quench buffer: 163 mM potassium phosphate pH 7.8, 20% glycerol, 25 mM EDTA. The final concentration of SPA beads is 1.0 mg/mL. After the plate sealing, plates were shaken overnight at room temperature and centrifuged at 1500 rpm for 10 min, the radioactivity of the product was determined by scintillation counting on Topcount (Perkin-Elmer). IC50 determination was performed by fitting the curve of percent of the solvent control activity versus the log of the inhibitor concentration using the GraphPad Prism 6.0 software.

[2] = molecular target: PI3Kδ (p110δ/p85α) Recombinant Human Protein (Homo sapiens (Human), UniProt O00329); assay: PI3Kδ Scintillation Proximity Assay; type: biochemical; details: 20 μM PIP2, 2 μM ATP, SPA
PI3Kδ (p110δ/p85α) Recombinant Human Protein, sequence (O00329 whole entry): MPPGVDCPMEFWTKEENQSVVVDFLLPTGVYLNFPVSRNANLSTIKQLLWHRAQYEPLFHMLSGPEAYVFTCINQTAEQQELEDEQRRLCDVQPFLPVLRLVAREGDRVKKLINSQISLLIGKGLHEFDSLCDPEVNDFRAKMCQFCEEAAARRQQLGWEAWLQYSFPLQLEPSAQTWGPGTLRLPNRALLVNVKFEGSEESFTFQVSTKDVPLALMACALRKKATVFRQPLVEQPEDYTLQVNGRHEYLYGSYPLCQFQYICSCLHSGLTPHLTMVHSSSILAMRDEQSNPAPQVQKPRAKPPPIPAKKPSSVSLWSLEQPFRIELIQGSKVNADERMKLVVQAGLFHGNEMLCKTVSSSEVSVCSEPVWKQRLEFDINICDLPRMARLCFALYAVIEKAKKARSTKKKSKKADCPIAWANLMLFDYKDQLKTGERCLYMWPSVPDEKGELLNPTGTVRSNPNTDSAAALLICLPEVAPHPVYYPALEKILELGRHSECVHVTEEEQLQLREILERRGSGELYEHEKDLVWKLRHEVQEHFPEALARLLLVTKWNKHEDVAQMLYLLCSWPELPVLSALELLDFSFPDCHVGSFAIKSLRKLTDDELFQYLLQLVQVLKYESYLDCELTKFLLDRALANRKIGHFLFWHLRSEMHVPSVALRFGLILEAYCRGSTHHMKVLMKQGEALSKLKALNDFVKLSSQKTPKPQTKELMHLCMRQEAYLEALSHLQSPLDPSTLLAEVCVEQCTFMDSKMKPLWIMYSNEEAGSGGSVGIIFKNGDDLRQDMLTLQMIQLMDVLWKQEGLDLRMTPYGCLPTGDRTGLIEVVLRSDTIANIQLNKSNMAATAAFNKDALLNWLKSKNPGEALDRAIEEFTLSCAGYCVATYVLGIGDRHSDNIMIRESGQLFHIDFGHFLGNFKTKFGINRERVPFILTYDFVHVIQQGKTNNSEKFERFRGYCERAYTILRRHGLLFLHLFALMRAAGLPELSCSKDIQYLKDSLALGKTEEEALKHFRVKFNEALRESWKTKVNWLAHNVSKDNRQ
PI3Kδ (p110δ/p85α) Recombinant Human Protein, sequence (P27986 whole entry partner): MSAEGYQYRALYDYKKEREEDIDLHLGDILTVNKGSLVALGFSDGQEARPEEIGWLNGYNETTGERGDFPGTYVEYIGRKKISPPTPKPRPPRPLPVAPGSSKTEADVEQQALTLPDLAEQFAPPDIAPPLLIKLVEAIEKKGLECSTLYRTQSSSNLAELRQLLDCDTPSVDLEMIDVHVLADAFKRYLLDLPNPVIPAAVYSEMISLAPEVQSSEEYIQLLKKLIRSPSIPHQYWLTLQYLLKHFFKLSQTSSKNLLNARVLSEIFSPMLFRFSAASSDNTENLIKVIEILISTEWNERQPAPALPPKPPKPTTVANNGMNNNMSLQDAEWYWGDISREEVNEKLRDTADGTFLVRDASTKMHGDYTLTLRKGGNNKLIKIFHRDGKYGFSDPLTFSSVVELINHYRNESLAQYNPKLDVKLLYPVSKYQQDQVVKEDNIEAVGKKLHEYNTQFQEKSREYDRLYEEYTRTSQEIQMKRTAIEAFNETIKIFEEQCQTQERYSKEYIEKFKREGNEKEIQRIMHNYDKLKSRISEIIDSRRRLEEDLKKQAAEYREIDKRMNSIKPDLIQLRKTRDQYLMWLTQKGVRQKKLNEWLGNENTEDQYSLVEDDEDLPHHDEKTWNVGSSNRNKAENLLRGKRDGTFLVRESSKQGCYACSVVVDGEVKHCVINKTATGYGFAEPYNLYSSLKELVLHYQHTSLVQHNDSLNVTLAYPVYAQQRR
Description: Example C. PI3Kδ Scintillation Proximity Assay Materials: [γ-^33P]ATP (10 mCi/mL) and Wheat Germ Agglutinin (WGA) YSi SPA Scintillation Beads was purchased from Perkin Elmer (Waltham, MA). Lipid kinase substrate, D-myo-Phosphatidylinositol 4,5-bisphosphate (PtdIns(4,5)P2)D (+)-sn-1,2-di-O-octanoylglyceryl, 3-O-phospho linked (PIP2), CAS 204858-53-7, was purchased from Echelon Biosciences (Salt Lake City, UT). PI3Kδ (p110δ/p85α) Recombinant Human Protein was purchased from Eurofins (St Charles, MO). ATP, MgCl2, DTT, EDTA, MOPS and CHAPS were purchased from Sigma Aldrich (St. Louis, MO). The kinase reaction was conducted in polystyrene 384-well Greiner Bio-one white plate from Thermo Fisher Scientific in a final volume of 25 μL. Inhibitors were first diluted serially in DMSO and added to the plate wells before the addition of other reaction components. The final concentration of DMSO in the assay was 2%. The PI3Kδ assay was carried out at room temperature in 20 mM MOPS, pH 6.7, 10 mM MgCl2, 5 mM DTT and CHAPS 0.03%. Reactions were initiated by the addition of ATP, the final reaction mixture consisted of 20 μM PIP2, 2 μM ATP, 0.5 μCi [γ-^33P] ATP, 3.4 nM PI3Kδ. Reactions were incubated for 120 min and terminated by the addition of 40 μL SPA beads suspended in quench buffer: 163 mM potassium phosphate pH 7.8, 20% glycerol, 25 mM EDTA. The final concentration of SPA beads is 1.0 mg/mL. After the plate sealing, plates were shaken overnight at room temperature and centrifuged at 1500 rpm for 10 min, the radioactivity of the product was determined by scintillation counting on Topcount (PerkinElmer). IC50 determination was performed by fitting the curve of percent of the solvent control activity versus the log of the inhibitor concentration using the GraphPad Prism 6.0 software.

[3] = test system: Phosphorylated Ribosomal Protein S6 (RPS6) in THP-1 cells; assay: THP-1 RPS6 ELISA Assay; type: cell-based, Human; details: serum starved, 2 hours compound, 10 nM MCP-1 for 15 minutes, Phospho-RPS6 ELISA, read-out: PI3Kγ_THP1_RPS6_ELISA IC50
Protocol: Example A. THP-1 RPS6 ELISA Assay
To measure the Phosphorylated Ribosomal Protein S6 (RPS6) in cell lysates, THP-1 cells (Human Acute Monocytic Leukemia) are purchased from ATCC (Manassas, VA) and maintained in RPMI with 10% FBS (Gibco/Life Technologies, Carlsbad, CA). For the assay, THP-1 cells are serum starved overnight in RPMI, then plated in RPMI (2×10^5 cells/well in 90 μL) into 96-well flat-bottom tissue culture treated plates (Corning, Corning, NY), in the presence or absence of a concentration range of test compounds. Covered plates are incubated for 2 hours at 37° C., 5% CO2 then treated with or without 10 nM MCP-1(MYBioSource, San Diego, CA) for 15 minutes at 37° C., 5% CO2. Plates are centrifuged at 1600 RPM and supernatants are removed. Cells are lysed in Lysis Buffer (Cell Signaling, Danvers, MA) with Protease Inhibitor (Calbiochem/EMD, Germany), PMSF (Sigma, St Louis MO), HALTS (Thermo Fisher, Rockford, IL) for 30 min on wet ice. Cell lysates are frozen at −80° C. before testing. The lysates are tested in the Human/Mouse/Rat Phospho-RPS6 ELISA (R&D Systems, Inc. Minn, MN). The plate is measured using a microplate reader (SpectraMax M5—Molecular Devices, LLC Sunnyvale, CA) set to 450 nm with a wavelength correction of 540. IC50 determination is performed by fitting the curve of inhibitor percent inhibition versus the log of the inhibitor concentration using the GraphPad Prism 5.0 software.

PI3Kγ (p110γ) Recombinant Human Protein, sequence (P48736 whole entry): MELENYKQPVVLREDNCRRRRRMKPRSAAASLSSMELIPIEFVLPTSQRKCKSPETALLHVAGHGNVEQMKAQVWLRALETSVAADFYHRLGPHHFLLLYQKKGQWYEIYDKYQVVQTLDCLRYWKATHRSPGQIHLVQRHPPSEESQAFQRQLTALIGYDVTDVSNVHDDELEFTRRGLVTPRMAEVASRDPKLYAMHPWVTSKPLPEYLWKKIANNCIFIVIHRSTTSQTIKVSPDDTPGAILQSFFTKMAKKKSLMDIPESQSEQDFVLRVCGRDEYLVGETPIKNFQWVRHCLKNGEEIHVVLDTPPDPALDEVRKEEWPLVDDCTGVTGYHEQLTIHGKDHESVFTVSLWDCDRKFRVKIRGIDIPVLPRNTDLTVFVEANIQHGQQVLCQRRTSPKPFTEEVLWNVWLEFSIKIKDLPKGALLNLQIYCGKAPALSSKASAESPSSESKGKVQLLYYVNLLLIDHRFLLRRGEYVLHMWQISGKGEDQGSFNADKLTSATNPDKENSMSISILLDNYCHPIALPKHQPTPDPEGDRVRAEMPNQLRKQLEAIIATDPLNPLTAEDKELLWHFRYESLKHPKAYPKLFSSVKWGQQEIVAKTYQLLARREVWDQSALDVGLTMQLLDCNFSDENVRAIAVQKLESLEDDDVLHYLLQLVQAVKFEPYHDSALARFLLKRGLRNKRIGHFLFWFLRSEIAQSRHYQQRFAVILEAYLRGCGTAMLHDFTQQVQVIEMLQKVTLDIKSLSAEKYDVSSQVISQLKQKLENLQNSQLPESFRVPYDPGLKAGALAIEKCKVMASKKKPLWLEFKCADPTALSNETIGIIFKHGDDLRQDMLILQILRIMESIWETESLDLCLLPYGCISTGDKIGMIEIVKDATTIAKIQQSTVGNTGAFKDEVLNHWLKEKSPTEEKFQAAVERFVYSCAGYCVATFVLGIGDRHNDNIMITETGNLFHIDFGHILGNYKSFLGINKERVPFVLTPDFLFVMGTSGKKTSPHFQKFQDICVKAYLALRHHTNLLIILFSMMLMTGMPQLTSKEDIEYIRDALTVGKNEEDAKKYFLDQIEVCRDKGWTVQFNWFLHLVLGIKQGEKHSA

Cc1ccc(C(O)(CO)C(F)(F)F)cc1-c1cnc(N)c(-n2cncn2)n1 (single isomer, unassigned) [Example 15, 2-(3-(5-Amino-6-(1H-1,2,4-triazol-1-yl)pyrazin-2-yl)-4-methylphenyl)-3,3,3-trifluoropropane-1,2-diol]
IC50 [1]: ≤ 100 nM | IC50 [2]: ≤ 100 nM | IC50 ([3]; Homo sapiens): 100 to 500 nM

Cc1ccc(C(O)(CO)C(F)(F)F)cc1-c1cnc(N)c(C2CN(S(=O)(=O)c3ccn(C)n3)C2)n1 (centres unmarked) [Example 23, 2-(3-(5-Amino-6-(1-((1-methyl-1H-pyrazol-3-yl)sulfonyl)azetidin-3-yl)pyrazin-2-yl)-4-methylphenyl)-3,3,3-trifluoropropane-1,2-diol]
IC50 [2]: 100 to 500 nM | IC50 ([3]; Homo sapiens): 100 to 500 nM

Cc1ccc(C(O)(CO)C(F)(F)F)cc1-c1cnc(N)c(-n2nccn2)n1 (centres unmarked) [Example 14, 2-(3-(5-Amino-6-(1H-1,2,3-triazol-2-yl)pyrazin-2-yl)-4-methylphenyl)-3,3,3-trifluoropropane-1,2-diol]
IC50 [1]: ≤ 100 nM | IC50 [2]: ≤ 100 nM | IC50 [3]: < 100 nM
